These results are taken from patent US5482996A, “Protein-containing polymers and a method of synthesis of protein-containing polymers in organic solvents” (University of Pittsburgh, priority 1993, dated 1996).

What all share (assay): Hydrolysis of peptide p-nitroanilide substrate, kinetic constants
Holding throughout (type): biochemical

Test [1] deals with T1, Subtilisin Carlsberg, doubly modified with PEG monomethacrylate (MW 8,000) (Bacillus licheniformis, UniProt P00780).
T1 construct: purchased Sigma Chemical Co
T1 sequence (P00780 106-379): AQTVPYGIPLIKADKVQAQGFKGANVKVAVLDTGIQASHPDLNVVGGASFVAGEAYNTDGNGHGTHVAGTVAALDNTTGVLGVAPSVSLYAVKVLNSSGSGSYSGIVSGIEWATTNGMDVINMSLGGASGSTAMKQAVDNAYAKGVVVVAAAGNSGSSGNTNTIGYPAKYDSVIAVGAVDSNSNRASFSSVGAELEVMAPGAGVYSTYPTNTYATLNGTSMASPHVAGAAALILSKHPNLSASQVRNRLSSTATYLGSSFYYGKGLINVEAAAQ
As for the experimental part:
(§1) Kinetic studies of the modified protein were performed using substrate (N-succinyl-L-alanyl-L-alanyl-L-prolyl-L-phenylalanyl p-nitroanilide) in 0.1M Tris-HCl buffer, pH 8.6. The purified HPLC fractions (three total) were tested for activity while increasing the substrate concentrations in equal increments. Substrate concentration versus rate was plotted to determine Vmax and Km using non-linear regression analysis. A standard of pure subtilisin was analyzed as a control.
(§2) Before reacting PEG-subtilisin with other materials it is necessary to fully characterize the activity and stability of the "bio-monomer". Using solubility, IMAC, and HPLC the modified protein was separated into predominantly singly or doubly modified protein fractions. […] Thus, the activities and stabilities noted are average properties for the sample being studied. For comparison to the native protein, unmodified protein was purified from the modification reaction mixture and characterized to some degree.
(§3) As set forth above, the activity of the modified enzymes was assessed with the artificial peptide substrate succinyl-L-alanyl-L-alanyl-L-prolyl-L-phenylalanyl p-nitroanilide. A sample of 30 mg modified protein powder was dissolved in tetrahydrofuran, and filtered with a solvent resistant 0.22 μm filter in order to remove the insoluble native protein. The solvent was evaporated and, as mentioned above, values for Vmax and Km were determined.

Test [2] addresses T2, Subtilisin Carlsberg, singly modified with PEG monomethacrylate (MW 8,000) (Bacillus licheniformis, UniProt P00780).
T2 construct: purchased Sigma Chemical Co
T2 sequence (P00780 106-379): T1 sequence (P00780 106-379)
To be noted: 25% dioxane/75% buffer. As for the experimental part:
as §1, §2, §3

For test [3], the target named is T3, Subtilisin Carlsberg, unmodified fraction purified from the PEG modification reaction mixture (Bacillus licheniformis, UniProt P00780).
T3 construct: purchased Sigma Chemical Co
T3 sequence (P00780 106-379): T1 sequence (P00780 106-379)
As for the experimental part:
as §1, §2, §3

Test [4] deals with T4, Subtilisin Carlsberg, native (pure subtilisin standard) (Bacillus licheniformis, UniProt P00780).
T4 construct: purchased Sigma Chemical Co
T4 sequence (P00780 106-379): T1 sequence (P00780 106-379)
As for the experimental part: as §1, §3

Starred links: 1 amine or outer side, 2 acyl side, 3 side chain; linkers in the order of their positions; H or OH if unused. Residues, ends and D or L forms follow the SMILES beside them. *: point of attachment. pNA = O=[N+]([O-])c1ccc(N*)cc1; Suc = O=C(CCC(=O)[*:2])[*:1]

For `C[C@H](NC(=O)CCC(=O)O)C(=O)N[C@@H](C)C(=O)N1CCC[C@H]1C(=O)N[C@@H](Cc1ccccc1)C(=O)Nc1ccc([N+](=O)[O-])cc1` [N-succinyl-L-alanyl-L-alanyl-L-prolyl-L-phenylalanyl p-nitroanilide] (Suc-AAPF-pNA), the Vmax in test [1] (25% dioxane/75% buffer) is given as 1.8 ΔA412/sec/mg protein; in test [1] (Tris-HCl buffer (0.1M, pH 8.6)), 1.6 ΔA412/sec/mg protein; in test [2] it was 5.3 ΔA412/sec/mg protein; in test [3] (25% dioxane/75% buffer) it was 2.9 ΔA412/sec/mg protein; in test [3] (Tris-HCl buffer (0.1M, pH 8.6)), 2.2 ΔA412/sec/mg protein; in test [4] (25% dioxane/75% buffer), 66.2 ΔA412/sec/mg protein. The Vmax in test [4] (Tris-HCl buffer (0.1M, pH 8.6)) is on record as 108 ΔA412/sec/mg protein.
